According to patent US9089565B2, “Compositions and methods for causing neurite outgrowth” (MEDICAL RESEARCH COUNCIL, priority 2009, dated 2015):

What was measured:
[1] = system: Entorhinal-hippocampal slices; experiment: Regeneration of entorhinal-hippocampal projection in lesioned organotypic slice culture (Dil tracing); assay type: cell-based, mice; settings: slices treated with either PKA or ATP alone, 8 days
Method: (A) Organotypic culture of Entorhinal-hippocampal slices was prepared from 129X1/SvJJmsSlc (albino) mice postnatal day 5 and 6. Culture media were changed every 2 days. […], On the day in vitro (DIV) 10, the entorhinal-hippocampal projection was transected with sterile scalpel brade. The lesioned slices were cultured for 8 days with or without 1250 U/ml PKA and 100 μM ATP. On the DIV17, a small aliquot of Dil paste (Invitrogen) was applied on the entorhinal side of the transection. […] Location of lesion made at DIV 10 is indicated as a white dot line. (B) Intensity of Dil signal near the dentate gyrus was measured with ImageJ (version 1.42q, National institute of health, USA). Measured area (100 μm square) was indicated in (A) as a open white square. Intensity was indicated as a percentage of Dil signal in control (not lesioned). Experiment was repeated for 5 time in triplicate. Typical images are indicated in (A), and average of the 5 independent experiments was plotted in (B). A student t-test was used to assess statistical significance.
In FIG. 10, entorhinal-hippocampal slices from mice postnatal day 5 or 6 were transected on day in vitro (DIV) 10, and they were incubated with or without PKA and ATP for 8 days. […]

NgR1 = biological target: T1, NgR1 (Homo sapiens, UniProt Q9BZR6, S281A); experiment: Binding of Nogo-66 fragment (Nogo-GFP) to COS7 cells over-expressing NgR1; settings: 281S/A mutant NgR1; pre-treatment 30 min (CK2 with ATP, or NEP1-40)
T1 construct: The cDNAs of NgR1 (NM 023004, Nt. 184-1543); expressed in transfected cells; host or cells: COS7
T1 sequence (Q9BZR6 27-447 S281A): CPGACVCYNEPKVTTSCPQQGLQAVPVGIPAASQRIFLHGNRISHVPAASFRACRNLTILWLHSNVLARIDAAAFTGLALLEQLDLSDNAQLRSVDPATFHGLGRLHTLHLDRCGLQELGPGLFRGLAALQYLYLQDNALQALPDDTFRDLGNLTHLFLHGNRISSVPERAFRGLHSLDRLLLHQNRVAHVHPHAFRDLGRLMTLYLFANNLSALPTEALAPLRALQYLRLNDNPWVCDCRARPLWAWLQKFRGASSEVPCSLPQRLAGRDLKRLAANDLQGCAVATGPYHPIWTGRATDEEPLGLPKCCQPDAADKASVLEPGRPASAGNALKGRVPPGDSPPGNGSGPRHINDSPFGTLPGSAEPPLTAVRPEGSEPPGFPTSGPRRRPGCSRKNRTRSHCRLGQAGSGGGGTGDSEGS
Method: FIG. 3. CK2 phosphorylates NgR1, and inhibits binding of the myelin-associated proteins to NgR1. (A) Myc-tagged wild type, 281S/A or 281S/D mutant NgR1 were over-expressed in COS7 cells. The over-expressed cells were incubated with either the combination of ATP and CK2, or NEP1-40 for 30 min at 37° C. After washing with PBS, cells were incubated with Hisx6-tagged Nogo-GFP for 3 hours at 4° C. The cells were fixed and immunofluorescence was performed with anti-Myc and anti-GFP antibodies. (B) COS7 cells over-expressing Myc-tagged wild type NgR1 were treated as described in (A). Proteins were extracted and the Myc-tagged NgR1 was immunoprecipitated with anti-Myc antibody. Co-precipitated Hisx6-tagged Nogo-GFP was detected by anti-GFP antibody. (C) Cell surface proteins in NgR1-overexpressing COS7 cells were labelled with biotin. The biotinylated proteins were fractionated and analysed by SDS-PAGE. Biotinylated NgR1-Myc was detected with anti-Myc. antibody. (D) COS7 cells over-expressing either wild type NgR1-Myc or 281S/A mutant NgR1-Myc were incubated with ã-^32P-ATP in the presence or absence of CK2. Myc-tagged proteins were immunoprecipitated and analysed with SDS-PAGE. Proteins were blotted onto a PVDF membrane and the membrane was exposed to X-ray film to detect incorporated ^32P. After autoradiography, the membrane was used for immunoblotting with anti-Myc antibody. (E and F) COS7 cells over-expressing Myc-tagged wild type, 281S/A or 281S/D mutant NgR1, were treated as described in (A). After washing with PBS, cells were incubated with either His-tagged OMgp (E) or HA-tagged MAG (F) for 3 hours at 4° C. […]
After treatment with or without CK2, COS7 cells over-expressing wild type or mutant NgR were incubated with Hisx6 tagged Nogo-GFP (10 μg/ml), HA-MAG (50 μg/ml) or Hisx6 tagged OMgp (10 μg/ml) in PBS for 3 hours at 4° C. […] Biotinylated proteins were precipitated with streptavidin beads and were analysed by SDS-PAGE. Each sample fractionated from 5×10^6 cells was analysed by SDS-PAGE. […]

| Compound | location of Dil [1] | binding of the Nogo-66 fragment, immunofluorescence (NgR1) |
| --- | --- | --- |
| Nc1ncnc2c1ncn2[C@@H]1O[C@H](COP(=O)(O)OP(=O)(O)OP(=O)(O)O)[C@@H](O)[C@H]1O [ATP] | location of Dil was limited in the entorhinal side of the transection |  |
| NEP1-40: a competitive inhibitor of Nogo-66 binding to NgR1 (MEDLDQSPLVSSSDSPPRPQPAFKYQFVREPEDEEEEEEE; Nogo-66 residues 1-40; UniProt Q9NQC3 1-40, looked up, fragment) [reference compound] |  | inhibited binding |
